Test results taken from patent US12559492B2, “BRAF degraders” (C4 Therapeutics, Inc., priority 2020, dated 2026).

Biological target: BRAF^V600E protein (Homo sapiens, UniProt P15056, V600E)
Assay: HiBiT cellular BRAF V600E degradation assay
Format: cell-based
Details: 24 h incubation; for DC50: A375.10 cells (HiBiT tag knocked in at N-terminal of BRAF V600E), concentration at which 50% of total cellular BRAF V600E is degraded; for Emax: A375.10 cells, Emax = amount of residual protein remaining in the cell after compound treatment, read-out: HiBit 24 h Emax

Sequence of BRAF^V600E protein (P15056 whole entry V600E): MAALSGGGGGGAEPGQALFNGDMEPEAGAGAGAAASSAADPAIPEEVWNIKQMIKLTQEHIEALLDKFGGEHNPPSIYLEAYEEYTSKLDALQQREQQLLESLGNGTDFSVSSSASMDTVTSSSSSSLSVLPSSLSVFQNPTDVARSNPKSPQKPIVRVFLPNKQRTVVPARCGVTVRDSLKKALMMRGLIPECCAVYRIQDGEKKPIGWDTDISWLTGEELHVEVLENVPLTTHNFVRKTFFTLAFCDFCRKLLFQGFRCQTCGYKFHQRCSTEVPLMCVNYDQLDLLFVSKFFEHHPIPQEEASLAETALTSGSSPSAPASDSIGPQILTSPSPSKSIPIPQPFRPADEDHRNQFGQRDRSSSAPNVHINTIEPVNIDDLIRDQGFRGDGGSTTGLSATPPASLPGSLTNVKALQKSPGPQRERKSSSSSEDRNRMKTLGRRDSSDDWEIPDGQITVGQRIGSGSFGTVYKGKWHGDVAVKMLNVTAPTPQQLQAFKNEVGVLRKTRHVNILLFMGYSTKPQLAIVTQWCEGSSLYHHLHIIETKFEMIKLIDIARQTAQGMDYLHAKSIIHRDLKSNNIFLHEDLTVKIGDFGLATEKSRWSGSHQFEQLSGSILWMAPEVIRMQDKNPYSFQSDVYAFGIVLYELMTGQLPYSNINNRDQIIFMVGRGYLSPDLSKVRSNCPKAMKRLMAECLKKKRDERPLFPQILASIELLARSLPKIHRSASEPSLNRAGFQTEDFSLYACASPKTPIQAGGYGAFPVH

| DC50 [nM] | Emax [%] | SMILES |
| --- | --- | --- |
| 0.76 | 5.52 | CCN(C)S(=O)(=O)Nc1ccc(F)c(C(=O)c2c[nH]c3ncc(-c4cnc(N5CCN(C(=O)CC6(O)CCN(c7ccc(N[C@@H]8CCC(=O)NC8=O)cc7Cl)CC6)CC5)nc4)cc23)c1F [Example 209, 5-[2-[4-[2-[1-[2-chloro-4-[[(3R)-2,6-dioxo-3-piperidyl]amino]phenyl]-4-hydroxy-4-piperidyl]acetyl]piperazin-1-yl]pyrimidin-5-yl]-3-[3-[[ethyl(methyl)sulfamoyl]amino]-2,6-difluoro-benzoyl]-1H-pyrrolo[2,3-b]pyridine] |
| 7.69 | 7.6 | CCN(C)S(=O)(=O)Nc1ccc(F)c(C(=O)c2c[nH]c3ncc(-c4ccc(N5CCN(C(=O)CC6(O)CCN(c7ccc(NC8CCC(=O)NC8=O)cc7F)CC6)CC5)cc4F)cc23)c1F (stereo not shown) [Example 210, 5-[4-[4-[2-[1-[4-[(2,6-dioxo-3-piperidyl)amino]-2-fluoro-phenyl]-4-hydroxy-4-piperidyl]acetyl]piperazin-1-yl]-2-fluoro-phenyl]-3-[3-[[ethyl(methyl)sulfamoyl]amino]-2,6-difluoro-benzoyl]-1H-pyrrolo[2,3-b]pyridine] |
| 11.3 | 9.3 | CCN(C)S(=O)(=O)Nc1ccc(F)c(C(=O)c2c[nH]c3ncc(-c4cnc(N5CCN(C(=O)CC6(O)CCN(c7ccc(NC8CCC(=O)NC8=O)cc7F)CC6)CC5)c(S(C)(=O)=O)c4)cc23)c1F (stereo not shown) [Example 211, 5-[6-[4-[2-[1-[4-[(2,6-dioxo-3-piperidyl)amino]-2-fluoro-phenyl]-4-hydroxy-4-piperidyl]acetyl]piperazin-1-yl]-5-methylsulfonyl-3-pyridyl]-3-[3-[[ethyl(methyl)sulfamoyl]amino]-2,6-difluoro-benzoyl]-1H-pyrrolo[2,3-b]pyridine] |
| 32.8 | 7.02 | CCN(C)S(=O)(=O)Nc1ccc(F)c(C(=O)c2c[nH]c3ncc(-c4ccc(N5CCN(C(=O)CC6(O)CCN(c7ccc(NC8CCC(=O)NC8=O)cc7F)CC6)CC5)c(C(F)(F)F)c4)cc23)c1F (stereo not shown) [Example 212, 5-[4-[4-[2-[1-[4-[(2,6-dioxo-3-piperidyl)amino]-2-fluoro-phenyl]-4-hydroxy-4-piperidyl]acetyl]piperazin-1-yl]-3-(trifluoromethyl)phenyl]-3-[3-[[ethyl(methyl)sulfamoyl]amino]-2,6-difluoro-benzoyl]-1H-pyrrolo[2,3-b]pyridine] |
| 0.65 | 5.48 | CCN(C)S(=O)(=O)Nc1ccc(F)c(C(=O)c2c[nH]c3ncc(-c4ccc(N5CCN(C(=O)CC6(O)CCN(c7ccc(N8CCC(=O)NC8=O)cc7Cl)CC6)CC5)nc4)cc23)c1F [Example 214, 5-[6-[4-[2-[1-[2-chloro-4-(2,4-dioxohexahydropyrimidin-1-yl)phenyl]-4-hydroxy-4-piperidyl]acetyl]piperazin-1-yl]-3-pyridyl]-3-[3-[[ethyl(methyl)sulfamoyl]amino]-2,6-difluoro-benzoyl]-1H-pyrrolo[2,3-b]pyridine] |
| 2.71 | 7.87 | CCN(C)S(=O)(=O)Nc1ccc(F)c(C(=O)c2c[nH]c3ncc(-c4ccc(N5CCN(C(=O)CC6(O)CCN(c7cc(F)c(N8CCC(=O)NC8=O)cc7Cl)CC6)CC5)nc4)cc23)c1F [Example 215, 5-[6-[4-[2-[1-[2-chloro-4-(2,4-dioxohexahydropyrimidin-1-yl)-5-fluoro-phenyl]-4-hydroxy-4-piperidyl]acetyl]piperazin-1-yl]-3-pyridyl]-3-[3-[[ethyl(methyl)sulfamoyl]amino]-2,6-difluoro-benzoyl]-1H-pyrrolo[2,3-b]pyridine] |
| 1.33 | 7.4 | CCN(C)S(=O)(=O)Nc1ccc(F)c(C(=O)c2c[nH]c3ncc(-c4cnc(N5CCN(C(=O)CC6(O)CCN(c7cc(F)c(N8CCC(=O)NC8=O)cc7Cl)CC6)CC5)nc4)cc23)c1F [Example 216, 5-[2-[4-[2-[1-[2-chloro-4-(2,4-dioxohexahydropyrimidin-1-yl)-5-fluoro-phenyl]-4-hydroxy-4-piperidyl]acetyl]piperazin-1-yl]pyrimidin-5-yl]-3-[3-[[ethyl(methyl)sulfamoyl]amino]-2,6-difluoro-benzoyl]-1H-pyrrolo[2,3-b]pyridine] |
| 62.2 | 21 | CN(C1CC1)S(=O)(=O)Nc1ccc(F)c(C(=O)c2c[nH]c3ncc(-c4ccc(N5CCN(C(=O)CC6(O)CCN(c7ccc(NC8CCC(=O)NC8=O)cc7F)CC6)CC5)nc4)cc23)c1F (stereo not shown) [Example 217, 3-[3-[[cyclopropyl(methyl)sulfamoyl]amino]-2,6-difluoro-benzoyl]-5-[6-[4-[2-[1-[4-[(2,6-dioxo-3-piperidyl)amino]-2-fluoro-phenyl]-4-hydroxy-4-piperidyl]acetyl]piperazin-1-yl]-3-pyridyl]-1H-pyrrolo[2,3-b]pyridine] |
| 4.1 | 6.24 | CCN(C)S(=O)(=O)Nc1ccc(F)c(C(=O)c2c[nH]c3ncc(-c4ccc(N5CCN(C(=O)CC6(O)CCN(c7cc(Cl)c(N8CCC(=O)NC8=O)cc7Cl)CC6)CC5)nc4)cc23)c1F [Example 218, 5-[6-[4-[2-[1-[2,5-dichloro-4-(2,4-dioxohexahydropyrimidin-1-yl)phenyl]-4-hydroxy-4-piperidyl]acetyl]piperazin-1-yl]-3-pyridyl]-3-[3-[[ethyl(methyl)sulfamoyl]amino]-2,6-difluoro-benzoyl]-1H-pyrrolo[2,3-b]pyridine] |
| 1.65 | 6.11 | CCN(C)S(=O)(=O)Nc1ccc(F)c(C(=O)c2c[nH]c3ncc(-c4ccc(N5CCN(C(=O)CC6(O)CCN(c7cc(Cl)c(N8CCC(=O)NC8=O)cc7F)CC6)CC5)nc4)cc23)c1F [Example 219, 5-[6-[4-[2-[1-[5-chloro-4-(2,4-dioxohexahydropyrimidin-1-yl)-2-fluoro-phenyl]-4-hydroxy-4-piperidyl]acetyl]piperazin-1-yl]-3-pyridyl]-3-[3-[[ethyl(methyl)sulfamoyl]amino]-2,6-difluoro-benzoyl]-1H-pyrrolo[2,3-b]pyridine] |
| 5.65 | 9.12 | CCN(C)S(=O)(=O)Nc1ccc(F)c(C(=O)c2c[nH]c3ncc(-c4cc(F)c(N5CCN(C(=O)CC6(O)CCN(c7ccc(NC8CCC(=O)NC8=O)cc7F)CC6)CC5)cc4F)cc23)c1F (stereo not shown) [Example 221, 5-[4-[4-[2-[1-[4-[(2,6-dioxo-3-piperidyl)amino]-2-fluoro-phenyl]-4-hydroxy-4-piperidyl]acetyl]piperazin-1-yl]-2,5-difluoro-phenyl]-3-[3-[[ethyl(methyl)sulfamoyl]amino]-2,6-difluoro-benzoyl]-1H-pyrrolo[2,3-b]pyridine] |
| 17 | 13 | CCN(C)S(=O)(=O)Nc1ccc(F)c(C(=O)c2c[nH]c3ncc(-c4ccc(N5CCN(C(=O)CN6CCC(c7ccc(OC8CCC(=O)NC8=O)cc7)CC6)CC5)nc4)cc23)c1F (stereo not shown) [Example A1, 5-[6-[4-[2-[4-[4-(2,6-Dioxopiperidin-3-yl)oxyphenyl]piperidin-1-yl]acetyl]piperazin-1-yl]pyridin-3-yl]-3-[3-[[ethyl(methyl)sulfamoyl]amino]-2,6-difluorobenzoyl]-1H-pyrrolo[2,3-b]pyridine] |
| 66 | 22 | CCN(C)S(=O)(=O)Nc1ccc(F)c(C(=O)c2c[nH]c3ncc(-c4ccc(N5CCN(C(=O)CCCN6CCC(c7ccc(OC8CCC(=O)NC8=O)cc7)CC6)CC5)nc4)cc23)c1F (stereo not shown) [Example A2, 5-[6-[4-[4-[4-[4-(2,6-Dioxopiperidin-3-yl)oxyphenyl]piperidin-1-yl]butanoyl]piperazin-1-yl]pyridin-3-yl]-3-[3-[[ethyl(methyl)sulfamoyl]amino]-2,6-difluorobenzoyl]-1H-pyrrolo[2,3-b]pyridine] |
| 46 | 19 | CCN(C)S(=O)(=O)Nc1ccc(F)c(C(=O)c2c[nH]c3ncc(-c4ccc(N5CCN(CC(=O)N6CCC(c7ccc(OC8CCC(=O)NC8=O)cc7)CC6)CC5)nc4)cc23)c1F (stereo not shown) [Example A3, 5-[6-[4-[2-[4-[4-(2,6-Dioxopiperidin-3-yl)oxyphenyl]piperidin-1-yl]-2-oxoethyl]piperazin-1-yl]pyridin-3-yl]-3-[3-[[ethyl(methyl)sulfamoyl]amino]-2,6-difluorobenzoyl]-1H-pyrrolo[2,3-b]pyridine] |
| 83 | 31 | CCN(C)S(=O)(=O)Nc1ccc(F)c(C(=O)c2c[nH]c3ncc(-c4ccc(CN5CCN(C(=O)N6CCN(c7ccc(OC8CCC(=O)NC8=O)cc7)CC6)CC5)cc4)cc23)c1F (stereo not shown) [Example A4, 5-[4-[[4-[4-[4-(2,6-Dioxopiperidin-3-yl)oxyphenyl]piperazine-1-carbonyl]piperazin-1-yl]methyl]phenyl]-3-[3-[[ethyl(methyl)sulfamoyl]amino]-2,6-difluorobenzoyl]-1H-pyrrolo[2,3-b]pyridine] |

| SMILES | DC50 [nM] | Emax [%] |
| --- | --- | --- |
| CCN(C)S(=O)(=O)Nc1ccc(F)c(C(=O)c2c[nH]c3ncc(-c4cnc(N5CCN(C(=O)CC6(O)CCN(c7ccc(N8CCC(=O)NC8=O)cc7Cl)CC6)CC5)nc4)cc23)c1F [Example 213, 5-[2-[4-[2-[1-[2-chloro-4-(2,4-dioxohexahydropyrimidin-1-yl)phenyl]-4-hydroxy-4-piperidyl]acetyl]piperazin-1-yl]pyrimidin-5-yl]-3-[3-[[ethyl(methyl)sulfamoyl]amino]-2,6-difluoro-benzoyl]-1H-pyrrolo[2,3-b]pyridine] | 0.42 | 6.06 |
| CCN(C)S(=O)(=O)Nc1ccc(F)c(C(=O)c2c[nH]c3ncc(-c4ccc(N5CCN(C(=O)CC6(O)CCN(c7cc(F)c(N8CCC(=O)NC8=O)cc7F)CC6)CC5)nc4)cc23)c1F [Example 220, 5-[6-[4-[2-[1-[4-(2,4-dioxohexahydropyrimidin-1-yl)-2,5-difluoro-phenyl]-4-hydroxy-4-piperidyl]acetyl]piperazin-1-yl]-3-pyridyl]-3-[3-[[ethyl(methyl)sulfamoyl]amino]-2,6-difluoro-benzoyl]-1H-pyrrolo[2,3-b]pyridine] | 1.45 | 7.62 |
